{
  "source": "paper PMC4401630",
  "about": "(Clinical cancer research : an official journal of the …, 2015)",
  "key": {"S6": {"test_system": "S6", "test": "Immunohistochemistry of paired tumor tissues", "assay_type": "in vivo, human", "conditions": "mean (±SD)"}, "[1]": {"test": "Safety: treatment-emergent adverse events", "assay_type": "in vivo, human"}, "[2]": {"test_system": "phospho-mTOR Ser2448 (pMTOR)", "test": "Immunohistochemistry of paired tumor tissues", "assay_type": "in vivo, human", "conditions": "mean (±SD)"}, "[3]": {"test_system": "resectable non-small cell lung cancer (NSCLC)", "test": "Metabolic response on paired 18F-FDG PET/CT", "assay_type": "in vivo, human", "conditions": "for Change in metabolic activity (SUVmax): up to 28 days, control 29.0%; for Change in metabolic activity (SUVmax) / Mean reduction in SUVmax (percent change of initial SUVmax): p=0.014; for Mean reduction in SUVmax (percent change of initial SUVmax): control mean increase of 29%"}, "[4]": {"test_system": "phospho-eIF4E Ser209 (pe1f4e)", "test": "Immunohistochemistry of paired tumor tissues", "assay_type": "in vivo, human", "conditions": "mean (±SD)"}, "BCL2L-11 gene": {"test_system": "BCL2L-11 gene", "test": "Gene expression profiling by RNA-Seq, baseline vs post-treatment tumor", "assay_type": "in vivo, human", "conditions": "responder with sarcomatoid NSCLC, 10mg everolimus"}, "[5]": {"test_system": "phospho-S6 Ser235/236 (pS6)", "test": "Immunohistochemistry of paired tumor tissues", "assay_type": "in vivo, human", "conditions": "mean (±SD)"}, "[6]": {"test": "Everolimus pharmacokinetic analysis in whole blood", "conditions": "for Tmax: NSCLC patients"}, "pS6/S6": {"test_system": "pS6/S6", "test": "Immunohistochemistry of paired tumor tissues", "assay_type": "in vivo, human", "conditions": "mean (±SD)"}, "Bim": {"test_system": "Bim", "test": "Immunohistochemistry of tumor tissues", "conditions": "for BIM expression immunoscore in post-treatment samples: control 48.6"}, "[7]": {"test_system": "phospho-Akt Ser473 (pAKT)", "test": "Immunohistochemistry of tumor tissues", "assay_type": "in vivo, human"}, "[8]": {"test_system": "resectable non-small cell lung cancer (NSCLC)", "test": "Anatomic response, tumor size", "assay_type": "in vivo, human"}, "p70S6K": {"test_system": "p70S6K", "test": "Immunohistochemistry of paired tumor tissues", "assay_type": "in vivo, human", "conditions": "mean (±SD)"}, "[9]": {"test_system": "phospho-4E-BP1 Thr37/46 (p4E-BP1)", "test": "Immunohistochemistry of paired tumor tissues", "assay_type": "in vivo, human", "conditions": "mean (±SD)"}, "[10]": {"conditions": "dose of everolimus 5, listed as Everolimus"}, "[11]": {"conditions": "dose of everolimus 10, listed as Everolimus"}, "[12]": {"conditions": "human, whole blood, oral, 10 mg"}, "[13]": {"conditions": "dose of everolimus 10, mean (±SD)"}},
  "note": "Values joined by “and” are separate entries in the source; they are usually repeats but may differ in a detail not shown here. Equal entries are not always repeated.",
  "data": [
    {"smiles": "CO[C@H]1C[C@@H]2CC[C@@H](C)[C@@](O)(O2)C(=O)C(=O)N2CCCC[C@H]2C(=O)O[C@H]([C@H](C)C[C@@H]2CC[C@@H](OCCO)[C@H](OC)C2)CC(=O)[C@H](C)/C=C(\\C)[C@@H](O)[C@@H](OC)C(=O)[C@H](C)C[C@H](C)/C=C/C=C/C=C/1C", "note": "[everolimus]", "values": [
      {"measurement": "S6 percent change in immunoscore, post-treatment relative to baseline", "setting": "S6; dose of everolimus 5", "value": "−13.7", "unit": "%"},
      {"measurement": "S6 percent change in immunoscore, post-treatment relative to baseline", "setting": "S6; [10]", "value": "−13.69 (± 144.05) %"},
      {"measurement": "S6 percent change in immunoscore, post-treatment relative to baseline", "setting": "S6; dose of everolimus 10", "value": "−77.0% and −77.03%"},
      {"measurement": "S6 percent change in immunoscore, post-treatment relative to baseline", "setting": "S6; [11]", "value": "−77.03 (± 16.02) %"},
      {"measurement": "MRSA Bacteremia, Grade 3", "setting": "[1]; CTCAE version 3, patients treated with everolimus (5 or 10 mg daily)", "value": 1},
      {"measurement": "Median length of hospital stay (LOS) after resection", "setting": "[1]; in vivo", "value": 5, "unit": "days"},
      {"measurement": "Range of length of hospital stay (LOS) after resection", "setting": "[1]; in vivo", "value": "3 to 43", "unit": "days"},
      {"measurement": "pMTOR percent change in immunoscore, post-treatment relative to baseline", "setting": "[2]; dose of everolimus 5", "value": "30 (± 153.95) %"},
      {"measurement": "pMTOR percent change in immunoscore, post-treatment relative to baseline", "setting": "[2]; dose of everolimus 10", "value": "−63.82 (± 51.3) %"},
      {"measurement": "Change in metabolic activity (SUVmax)", "setting": "[3]; 5mg cohort", "value": "−21", "unit": "%"},
      {"measurement": "Partial metabolic response (PMR) rate, PERCIST", "setting": "[3]; 5mg everolimus group", "value": 36, "unit": "%"},
      {"measurement": "Stable metabolic disease (SMD) rate, PERCIST", "setting": "[3]; 5mg everolimus group", "value": 64, "unit": "%"},
      {"measurement": "Change in metabolic activity (SUVmax)", "setting": "[3]; 10mg cohort", "value": "−24", "unit": "%"},
      {"measurement": "Partial metabolic response (PMR) rate, PERCIST", "setting": "[3]; 10mg everolimus group", "value": 50, "unit": "%"},
      {"measurement": "Stable metabolic disease (SMD) rate, PERCIST", "setting": "[3]; 10mg everolimus group", "value": 50, "unit": "%"},
      {"measurement": "Reduction in mean metabolic activity, RAS mutant tumors", "setting": "[3]; RAS mutant tumors treated with everolimus (10mg), control 88% increase, p=0.218", "value": 30, "unit": "%"},
      {"measurement": "Mean reduction in SUVmax (percent change of initial SUVmax)", "setting": "[3]; everolimus 5mg", "value": 21, "unit": "%"},
      {"measurement": "Mean reduction in SUVmax (percent change of initial SUVmax)", "setting": "[3]; everolimus 10mg", "value": 24, "unit": "%"},
      {"measurement": "Reduction in metabolic activity, non-RAS mutant tumors", "setting": "[3]; everolimus (10mg) group, control 12% increase, p=0.039", "value": 21, "unit": "%"},
      {"measurement": "Reduction in SUVmax, single patient (near complete metabolic response)", "setting": "[3]; one patient, sarcomatoid NSCLC, 10mg everolimus for 3 weeks", "value": 74, "unit": "%"},
      {"measurement": "pe1f4e percent change in immunoscore, post-treatment relative to baseline", "setting": "[4]; dose of everolimus 5", "value": "2.78 (± 5.56) %"},
      {"measurement": "pe1f4e percent change in immunoscore, post-treatment relative to baseline", "setting": "[4]; dose of everolimus 10", "value": "−27.13 (± 42.17) %"},
      {"measurement": "Increase in BCL2L-11 gene (BIM) expression, post-treatment vs baseline sample", "setting": "BCL2L-11 gene", "value": 6, "unit": "fold"},
      {"measurement": "pS6 percent change in immunoscore, post-treatment relative to baseline", "setting": "[5]; dose of everolimus 5", "value": "−61.57", "unit": "%"},
      {"measurement": "pS6 percent change in immunoscore, post-treatment relative to baseline", "setting": "[5]; [10]", "value": "−61.57 (± 35.8) %"},
      {"measurement": "pS6 percent change in immunoscore, post-treatment relative to baseline", "setting": "[5]; dose of everolimus 10", "value": "−47.21", "unit": "%"},
      {"measurement": "pS6 percent change in immunoscore, post-treatment relative to baseline", "setting": "[5]; [11]", "value": "−47.21 (± 44.96) %"},
      {"measurement": "Tmax", "setting": "[6]; 5 mg daily (n=12), whole blood", "value": "2 (1 – 2) hr."},
      {"measurement": "Day 21 Cmax", "setting": "[6]; 10 mg daily (n=7), whole blood", "value": "51.5 ± 9.9", "unit": "ng/mL"},
      {"measurement": "Tmax", "setting": "[6]; 10 mg daily (n=7), whole blood", "value": "2 (1 – 2) hr."},
      {"measurement": "Accumulation", "setting": "[6]; at either dose level (5mg, 10mg), days 8 and 21 vs day 1", "value": "no significant accumulation"},
      {"measurement": "concentration at 8 day", "setting": "[6]; human, whole blood, oral, 5 mg", "value": "6.3 ± 2.9", "unit": "ng/mL"},
      {"measurement": "concentration at 21 day", "setting": "[6]; human, whole blood, oral, 5 mg", "value": "5.7 ± 2.3", "unit": "ng/mL"},
      {"measurement": "half-life", "setting": "[6]; human, whole blood, oral, 5 mg", "value": 26.5, "unit": "h"},
      {"measurement": "Cmax", "setting": "[6]; human, whole blood, oral, 5 mg, Day 1 Cmax, 5 mg daily (n=12), whole blood", "value": "29.2 ± 9.9", "unit": "ng/mL"},
      {"measurement": "Cmax", "setting": "[6]; human, whole blood, oral, 5 mg, Day 8 Cmax, 5 mg daily (n=12), whole blood", "value": "42.1 ± 17.2", "unit": "ng/mL"},
      {"measurement": "AUC(0-t)", "setting": "[6]; human, whole blood, oral, 5 mg, Day 21 AUC0-24, 5 mg daily (n=12), whole blood", "value": "205 ± 87.4", "unit": "ng·h/mL"},
      {"measurement": "concentration at 8 day", "setting": "[6]; [12]", "value": "17.8 ± 7.6", "unit": "ng/mL"},
      {"measurement": "concentration at 21 day", "setting": "[6]; [12]", "value": "13.7 ± 9.2", "unit": "ng/mL"},
      {"measurement": "AUC(0-t)", "setting": "[6]; human, whole blood, oral, 10 mg, Day 8 AUC0-24, 10 mg daily (n=7), whole blood", "value": "579 ± 186", "unit": "ng·h/mL"},
      {"measurement": "AUC(0-t)", "setting": "[6]; human, whole blood, oral, 10 mg, Day 21 AUC0-24, 10 mg daily (n=7), whole blood", "value": "506 ± 208", "unit": "ng·h/mL"},
      {"measurement": "pS6/S6 percent change, post-treatment relative to baseline", "setting": "pS6/S6; dose of everolimus 5", "value": "−100 (±NA) %"},
      {"measurement": "pS6/S6 percent change, post-treatment relative to baseline", "setting": "pS6/S6; dose of everolimus 10", "value": "128.57 (± 219.26) %"},
      {"measurement": "BIM expression immunoscore in post-treatment samples", "setting": "Bim; 5mg everolimus", "value": 84.3},
      {"measurement": "BIM expression immunoscore in post-treatment samples", "setting": "Bim; 10mg everolimus", "value": 80.5},
      {"measurement": "Bim percent change in immunoscore, post-treatment relative to baseline", "setting": "Bim; [13]", "value": "−21.76 (± 60.07) %"},
      {"measurement": "BIM expression immunoscore, treated compared to control patients", "setting": "Bim; post-treatment samples, treated patients vs control", "value": "~2", "unit": "fold"},
      {"measurement": "Unmatched mean immunoscore, nuclear pAKT staining, post-treatment", "setting": "[7]; 5 mg cohort, baseline 0.3", "value": 15},
      {"measurement": "Unmatched mean immunoscore, cytoplasmic pAKT staining, post-treatment", "setting": "[7]; 5 mg cohort, baseline 13.1", "value": 47.5},
      {"measurement": "Unmatched mean immunoscore, nuclear pAKT staining, post-treatment", "setting": "[7]; 10 mg cohort, baseline 0.01", "value": 4.4},
      {"measurement": "Unmatched mean immunoscore, cytoplasmic pAKT staining, post-treatment", "setting": "[7]; 10 mg cohort, baseline 0.42", "value": 2.34},
      {"measurement": "PAKT Nuclear percent change in immunoscore, post-treatment relative to baseline", "setting": "[7]; [13]", "value": "0 (± 0) %"},
      {"measurement": "Patients achieving SD (RECIST)", "setting": "[8]; 5mg everolimus", "value": 82, "unit": "%"},
      {"measurement": "Patients with best response of PD (RECIST)", "setting": "[8]; 5mg everolimus", "value": 18, "unit": "%"},
      {"measurement": "Change in tumor size", "setting": "[8]; 10mg cohort, control 10.1%, p=0.047", "value": "−11.6", "unit": "%"},
      {"measurement": "Patients meeting RECIST criteria for partial response", "setting": "[8]; 10mg everolimus group", "value": 9, "unit": "%"},
      {"measurement": "Patients with SD (RECIST)", "setting": "[8]; 10mg everolimus group", "value": 91, "unit": "%"},
      {"measurement": "Tumor shrinkage in partial response", "setting": "[8]; 10mg everolimus group, partial response", "value": 30, "unit": "%"},
      {"measurement": "p70s6k percent change in immunoscore, post-treatment relative to baseline", "setting": "p70S6K; dose of everolimus 5", "value": "137.14 (± 442.07) %"},
      {"measurement": "p70s6k percent change in immunoscore, post-treatment relative to baseline", "setting": "p70S6K; dose of everolimus 10", "value": "−78.62 (± 22.79) %"},
      {"measurement": "p4E-BP1 percent change in immunoscore, post-treatment relative to baseline", "setting": "[9]; dose of everolimus 5", "value": "150 (±NA) %"},
      {"measurement": "p4E-BP1 percent change in immunoscore, post-treatment relative to baseline", "setting": "[9]; dose of everolimus 10", "value": "−78.75 (± 14.36) %"}
    ]}
  ]
}
